# Laboratory results as given in article PMC6271500, “Bowman-Birk Protease Inhibitor from Vigna unguiculata Seeds Enhances the Action of Bradykinin-Related Peptides” (Molecules, 2014).
# Where no end group is shown, it is not given here.
# What was measured:
# BTCI [1] = assay: Fluorescence quenching of BTCI by Bk-related peptides; format: binding, Vigna unguiculata; conditions: for Binding constant Kb (association) of BTCI in complex with peptide / Stern-Volmer quenching constant KSV of BTCI in complex with peptide: BTCI 25 µM, peptide 25-500 µM; for Stern-Volmer quenching constant KSV of BTCI in complex with peptide: excitation 295 nm, emission at 355 nm
# Procedure: Fluorescence measurements were performed at pH 5.0, 7.4 and 9.0 and 25 °C using the Jasco FP-6500 spectrofluorimeter (Jasco Analytical Instruments) coupled to a Jasco ETC-273T Peltier system (Jasco Analytical Instruments) with water circulation. Both excitation and emission slit were fitted to 5.0 nm and the excitation and emission wavelength were 295 nm and 300–400 nm, respectively. The concentration of BTCI was 25 µM, whereas the concentration of Bk and Bk-related peptides varied from 25 to 500 µM. The BTCI in complex with peptides were investigated by fluorescence quenching as a function of pH. The averages of five fluorescence spectra were recorded and processed by the program Spectra Manager (Jasco Analytical Instruments). The fluorescence emissions were fitted according to the classic Stern-Volmer equation (Equation (2)): F0/F = 1 + KSV[Q] (2) where F and F0 are the fluorescence intensities in the presence and absence of quencher, respectively, KSV is Stern-Volmer constant and Q is the concentration of the quencher.
# The binding constants for BTCI, Bk and Bk-related peptides interaction were calculated according to Equation (3): Log[(F0 − F)/F] = LogKb + nLog[Q] (3) where Kb is the binding constant and n is the number of binding sites per BTCI [47].
# [2] = Cardiovascular effects of infusion of Bk and Bk-related peptides with BTCI or vehicle in anesthetized rats; format: in vivo, male Wistar rats; conditions: for aortic vasodilation (change in AVC) / change in mean arterial pressure (MAP) / renal vasodilation (change in RVC): from the baseline value, mean ± SEM, 6 experiments
# Procedure: All experiments were conducted on adult male Wistar rats (280–350 g). They were obtained from the central animal house of the Federal University of Goiás. Experimental procedures were designed with strict adherence to the National Health Institute Guidelines for Care and Use of Laboratory Animals as approved by the Ethics Committee, Federal University of Goiás (034/12).
# On the day of experiments, the rats were anesthetized with halothane (2%–3% in 100% O2; Cristália Ltda, Itapira, SP, Brazil) prior to the catheterization of the right femoral vein and artery. After the catheter placement, the rats were removed from the halothane and the anesthesia was maintained with urethane (1.2 g·kg^−1 b.wt., i.v.; Sigma-Aldrich Co.). The trachea was cannulated to reduce airway resistance. The body temperature was kept at 37 ± 0.5 °C with a thermostatically controlled heated table.
# Renal blood flow (RBF) and aortic blood flow (ABF) were measured with an ultrasonic transit-time flowmeter (Transonic Systems, Inc., Ithaca, NY, USA). Data were recorded continuously with an analog-to-digital converter (PowerLab 4/25, ML845, AD Instruments, Bella Vista, Australia). Mean arterial pressure (MAP) was determined from the pulsatile signal. Aortic vascular conductance (AVC) and renal vascular conductance (RVC) were calculated by a ratio of ABF and RBF divided by MAP, and were expressed as percentage of baseline. Increasing doses of BTCI (0.3, 3, 30 and 300 µg·kg^−1, i.v.) were infused.
# Results are presented as means ± S.E.M. The effects of infusion of Bk, Bk-related peptides and BTCI on cardiovascular parameters were analyzed by one-way ANOVA. […] A value of Student’s t-test p < 0.05 was considered to denote a significant difference.
# [3] = Dynamic light scattering, free peptides and free BTCI; format: physicochemical; conditions: 25 µM, 2 mM Tris-HCl pH 7.4, 37 °C
# Procedure: (§1) The hydrodynamic properties of the BTCI through the complex formation with Bk and analogues were monitored using DLS technique with laser source operated at 800 nm on the DynaPro LSR model (Wyatt Technology Corporation, Santa Barbara, CA, USA). The internal temperature was controlled by a Peltier system coupled to the detector. The Bk, Bk-related peptides, BTCI and BTCI-Bk, BTCI-Bk-related peptides complexes, were incubated for 30 minutes in 2 mM Tris-HCl pH 7.4 and then centrifuged at 5000 g and filtered ([…]) before the DLS experiments. The average of 100 acquisitions for each measure was considered for BTCI (25 µM) and synthetic Bk-related peptides (25 µM) separately and subsequently for the BTCI-Bk complexes (1:1). The formation of complexes was analyzed at 37 °C, considering the relationship of the scattered light intensity signal and the hydrodynamic diameter of the samples, using the Dynamics V6 program (Wyatt Technology Corporation).
# BTCI [4] = assay: Dynamic light scattering, BTCI-Bk complex formation; format: binding, Vigna unguiculata; conditions: BTCI 25 µM : peptide 25 µM (1:1), 30 min, 2 mM Tris-HCl pH 7.4, 37 °C
# Procedure: as §1
# [5] = system: guinea pig (Cavia porcellus) ileum; assay: Smooth muscle constriction force assay, guinea pig ileum
# Procedure: Male guinea pigs (Cavia porcellus) weighing between 200 and 300 g and fasted for 24 h were euthanized using an overdose of anesthetic at 120 mg/kg (ketamine and xylazine). The protocol was approved by the Committee on the Ethics of Animal Experiments of the Institute of Biology, University of Brasilia (Proc. Number 737402/2008). Segments of 2 cm from the terminal portion of the ileum were removed and washed in Tyrode’s solution (g/L: 8.00 NaCl,0.20 KCl, 0.20 CaCl2, 0.21 MgCl2), and attached to a glass rod that was immersed in a physiological bath chamber with a capacity of 10 mL containing Tyrode solution at 37 °C. In the opposite region, a thread of silk was attached to the F-60 isometric transducer connected to a polygraph (NARCO Bio-Systems, Houston, TX, USA). The bath was kept aerated constantly with carbogen (95% O2 + 5% CO2). Previously, as a control, smooth muscle response was analyzed using Bk from Sigma Aldrich. Experiments were done in triplicate, and constriction force was analyzed by addition of Bk and analogues in the absence or presence of BTCI, in three concentrations: 1, 5 or 10 µM. The hypotensive effects of the complexes were also evaluated in the presence of trypsin or chymotrypsin. After each experiment, the bath solution was exchanged three times in order to remove the drug used. Statistical analysis was carried out using the Paleontological Statistics (PAST) Software Package for Education and Data Analysis. A value of Student’s t-test p < 0.05 was considered to denote a significant difference.
# Bradykinin (Bk) = Bradykinin (Bk) (UniProt P01042); assay: Intrinsic tryptophan (Trp82) fluorescence quenching titration; excitation 295 nm, emission 300-400 nm (analysed at 355 nm); conditions: 25 °C, not stated for the fluorescence assays at pH 5.0, 7.4 and 9.0 (2 mM Tris-HCl pH 7.4 is given only for DLS and CD)
# Chain of UniProt P01042 (P01042 whole entry, looked up): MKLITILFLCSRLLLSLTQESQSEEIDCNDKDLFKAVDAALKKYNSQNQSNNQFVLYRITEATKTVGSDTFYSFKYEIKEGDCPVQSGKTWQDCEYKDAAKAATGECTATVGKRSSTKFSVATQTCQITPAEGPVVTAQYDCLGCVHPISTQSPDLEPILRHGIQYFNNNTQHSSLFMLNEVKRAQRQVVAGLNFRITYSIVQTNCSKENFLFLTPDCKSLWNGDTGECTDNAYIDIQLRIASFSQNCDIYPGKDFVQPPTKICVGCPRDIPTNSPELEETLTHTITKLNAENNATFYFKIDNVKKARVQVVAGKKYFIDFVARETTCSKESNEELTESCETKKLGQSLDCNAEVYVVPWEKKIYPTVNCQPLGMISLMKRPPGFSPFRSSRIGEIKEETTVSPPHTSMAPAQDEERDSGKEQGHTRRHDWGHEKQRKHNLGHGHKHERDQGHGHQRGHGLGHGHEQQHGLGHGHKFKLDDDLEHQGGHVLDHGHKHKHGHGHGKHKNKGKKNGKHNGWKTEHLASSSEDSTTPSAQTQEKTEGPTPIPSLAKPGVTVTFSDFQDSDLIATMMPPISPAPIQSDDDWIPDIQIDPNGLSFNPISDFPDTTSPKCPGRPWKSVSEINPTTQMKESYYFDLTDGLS
# [6] = molecular target: Bk1, [Val]1[Thr]6-bradykinyl-Val-Asp relative to bradykinin: R1V;S6T; C-terminal extension Val10-Asp11; assay: as above; conditions: 25 °C, not stated for the fluorescence assays at pH 5.0, 7.4 and 9.0 (2 mM Tris-HCl pH 7.4 is given only for DLS and CD)
# [7] = molecular target: Bk2, [Val]1[Thr]6-bradykinyl-Gln-Ser relative to bradykinin: R1V;S6T; C-terminal extension Gln10-Ser11; assay: as above; conditions: 25 °C, not stated for the fluorescence assays at pH 5.0, 7.4 and 9.0 (2 mM Tris-HCl pH 7.4 is given only for DLS and CD)
# trypsin = assay: Pretreatment of peptides with trypsin; format: in vitro ADME
# [8] = peptide 120 µg·kg^−1 + BTCI 3 µg·kg^−1, i.v.
# [9] = peptide 120 µg·kg^−1 i.v. + BTCI 3 µg·kg^−1 i.v.
# [10] = peptide 120 µg·kg^−1 i.v., without BTCI
substance,measurement,setting,value
"Bradykinin [Bk, reference compound]",binding sites (n) per BTCI molecule,"BTCI [1]; pH 5.0, 25 °C",0.88
same,Binding constant Kb (association) of BTCI in complex with peptide,"BTCI [1]; pH 5.0, 25 °C",210 M⁻¹
same,Stern-Volmer quenching constant KSV of BTCI in complex with peptide,"BTCI [1]; pH 5.0, 25 °C",502 M⁻¹
same,binding sites (n) per BTCI molecule,"BTCI [1]; pH 7.4, 25 °C",1.39
same,Binding constant Kb (association) of BTCI in complex with peptide,"BTCI [1]; pH 7.4, 25 °C",9680 M⁻¹
same,Stern-Volmer quenching constant KSV of BTCI in complex with peptide,"BTCI [1]; pH 7.4, 25 °C",553 M⁻¹
same,binding sites (n) per BTCI molecule,"BTCI [1]; pH 9.0, 25 °C",1.06
same,Binding constant Kb (association) of BTCI in complex with peptide,"BTCI [1]; pH 9.0, 25 °C",710 M⁻¹
same,Stern-Volmer quenching constant KSV of BTCI in complex with peptide,"BTCI [1]; pH 9.0, 25 °C",468 M⁻¹
same,fluorescence intensity of BTCI (Trp^82) on addition of peptide,BTCI [1]; peptide 25 to 500 µM,progressive decrease in fluorescence intensity
same,effect of association with BTCI on aortic vasodilation,[2]; [8],potentiated
same,effect of association with BTCI on renal vasodilation,[2]; [8],potentiated renal
same,aortic vasodilation (change in AVC),[2]; [9],16 ± 1.4%
same,change in mean arterial pressure (MAP),[2]; [9],−10 ± 1.1 mmHg
same,renal vasodilation (change in RVC),[2]; [9],12 ± 1.1%
same,aortic vasodilation (change in AVC),[2]; [10],9 ± 1.6%
same,change in mean arterial pressure (MAP),[2]; [10],−7 ± 1.2 mmHg
same,renal vasodilation (change in RVC),[2]; [10],9 ± 2%
same,"polydispersity, peptide",[3],lower than 0.15
same,hydrodynamic diameter of BTCI in the presence of peptide,BTCI [4],increased from 1.7 nm to 3.3 nm
same,effect of BTCI on Bk-induced smooth muscle contraction,[5]; Bk 5.0 µM,slightly increased the smooth muscle contraction
same,effect of BTCI on Bk-induced smooth muscle contraction,[5]; Bk 10.0 µM,the same effect only when BTCI inhibited trypsin
same,smooth muscle contraction,"[5]; free peptide, 1, 5, 10 µM, 37 °C, triplicate",able to induce smooth muscle contraction in a concentration-responsive manner
same,smooth muscle contraction in association with BTCI in the presence of serine proteases,"[5]; with BTCI and trypsin or chymotrypsin, 1.0, 5.0, 10.0 µM",able to induce smooth muscle contraction in a concentration-responsive manner even in association with BTCI in the presence of serine proteases
"Black-eyed pea trypsin and chymotrypsin inhibitor (BTCI), Bowman-Birk inhibitor",Kb,Bradykinin (Bk); pH 5.0,0.21 ×10^3 M^−1
same,Kb,Bradykinin (Bk); pH 7.4,9.68 ×10^3 M^−1
same,Kb,Bradykinin (Bk); pH 9.0,0.71 ×10^3 M^−1
same,Kb,[6]; pH 5.0,0.84 ×10^3 M^−1
same,Kb,[6]; pH 7.4,1.02 ×10^3 M^−1
same,Kb,[6]; pH 9.0,0.23 ×10^3 M^−1
same,Kb,[7]; pH 5.0,0.59 ×10^3 M^−1
same,Kb,[7]; pH 7.4,0.22 ×10^3 M^−1
same,Kb,[7]; pH 9.0,1.81 ×10^3 M^−1
"VPPGFTPFRVD [Bk1, [Val]^1[Thr]^6-bradykinyl-Val-Asp]",product released by trypsin pretreatment in vitro,"trypsin; HPLC and mass spectrometry, data not shown",release the active Bk fragment
same,cleavage by trypsin (site),trypsin; pretreatment with trypsin,cleaved on Arg^9-Val^10
